# From patent US20020147136A1, “Compounds for targeting endothelial cells, compositions containing the same and methods for their use” (priority 2000, published 2002)
# Residues, ends and D or L forms follow the SMILES beside them.
# Experiments:
# [1] = system: Human aortic endothelial cells (HAEC); assay: Free TKPPR peptide inhibition of TKPPR-conjugated bead binding to HAEC; format: cell-based
# Protocol: HAEC were seeded into each well of an 8-well chamber slide (Collagen I Cellware, Becton Dickinson) and allowed to achieve confluence at 37° C. Solutions containing both TKPPR-beads (final concentration 4.9×10^6/mL) and green control beads (final concentration 4.9×10^6/mL) were prepared in D-PBS containing protease inhibitor cocktail (final dilution 1:50) and 0, 10, 25, 50, 100, 200, or 500 μM free TKPPR peptide. 0.25 mL of each microsphere solution was added to a well in the drained chamber slide and incubated at RT for 15 min. Two wells received the bead solution (mixed unconjugated and TKPPR beads as indicated above) lacking free competing TKPPR peptide. The slide was then washed three times with 0.5 mL D-PBS containing 0.1% Tween 20, fixed with methanol for 1 min and mounted. The three images for each level of TKPPR competition and the six images of the control were averaged and the % inhibition of binding was calculated using the following equation:
# % Inhibition=100×(Control Density−Competition Density)/Control Density
# A total of eleven 8-well slides were evaluated for competitive TKPPR-bead binding to HAEC on 7 different days.
# Neuropilin-1/Fc = assay: Fluorescence polarization binding to NP-1/Fc; conditions: unlabeled competitor; read-out: IC50 for competing BRU-326 binding to NP-1
# Protocol: The ability of various compositions comprising TKPPR monomers or multimers to bind to NP-1/Fc and KDR-Fc was evaluated using FP. The binding studies of various Oregon Green (OG)-labeled compounds comprising TKPPR monomers or multimers and related compounds with Neuropilin-1/Fc, and KDR-Fc (both from R&D Systems), were carried out at 37° C. in D-PBS buffer (pH 7.4). FP values (mP) for each substrate was measured by titrating the ligand (5-20 nM) with receptor protein using a Jolley Research and Consulting FPM-1 fluorescence Polarization analyzer. In each of these experiments the observed polarization values were plotted against receptor concentration. The mP values for 100% binding of tracer labeled ligand to receptor protein was calculated using the software provided by the vendor.
# [2] = system: Human aortic endothelial cells (HAEC); assay: TKPPR-conjugated fluorescent bead binding to HAEC, static; format: cell-based
# Protocol: Human aortic endothelial cells (HAEC) from Biowhittaker were grown as monolayers in EGM-MV medium from Biowhittaker according to the supplier's instructions.
# Briefly, a frozen cryovial of cells (500,000 cells in about 1 mL) was thawed for 2-3 minutes in a 37° C. water bath and cells were seeded into a T-75 flask coated with collagen I (commercially available) containing 15 mL EGM-MV of medium pre-equilibrated with 5% CO2 atmosphere. Cells were incubated in a standard tissue culture incubator at 37° C. HAEC were subcultured for up to 3 additional passages, using the following protocol:
# For binding studies and characterization, pelleted cells were diluted to a concentration of 16,560 cells per mL, and 0.5 mL was seeded into each well of an 8-well chamber slide (Collagen I-coated, Becton Dickinson) to generate a seeding density of 12,000 cells/cm^2. Cells seeded into chamber slides were used for assays after 7 to 10 days, and were not further propagated.
# TKPPR (see preparation described in the Example 1) was attached to red fluorescent carboxylate-modified FluoSpheres™ (Molecular Probes), which are 2.0 μm microspheres provided at 3.9×10^9 particles/mL of distilled water. 1.0 mg TKPPR was combined with 0.5 mLof 50 mM MES buffer (2-[N-Morpholino]ethanesulfonic acid, (commercially available), pH 6.0 and 0.2 mL FluoSpheres (7.8×10^8 spheres) in a 1.5 mL Eppendorf snap top, polypropylene centrifuge tube and rotated for 30 min at room temperature (RT). Then 2.8 mg EDAC (1-ethyl-3-(3-dimethylaminopropyl)carbodiimide hydrochloride, (commercially available) in 0.025 mL MES was added and the tube was rotated for 2 h at RT. Following the addition of 0.005 mL 1 N NaOH and 5.7 mg glycine in 0.025 mL MES, the tube was rotated for 30 min more at RT. The beads were then washed by employing three cycles of centrifugation at 14,000 rpm (20,800× g) in an Eppendorf 5417R centrifuge for 15 min, discarding the resulting supernatant, and resuspending in D-PBS. Storage was at 4° C. in 0.4 mL DPBS containing 0.05% NaN3 (final bead concentration was about 1.95×10^9/mL).
# Final bead concentration was 1.95×10^7/mL. […]
# Bead binding and localization was assessed at 200× magnification using the same microscopy equipment as described above. […] Finally, the processed images were inverted into black on a white background using Scion Image software (version beta 3b) and the integrated density was measured with the whole field selected.
# The incubation time was decreased to 15 min on an orbital shaker, and the washes (3) were carried out using D-PBS containing 0.1% Tween 20 (Sigma). […] TKPPR-bead binding was quantitated in three fields, the other bead types were quantitated in one field only. Bound beads were quantitated by manual counting.
# [3] = system: Rabbit aortic endothelial cells (RAEC); assay: Microbubble binding to RAEC in static culture; format: cell-based; conditions: free TKPPR 100 μM; 5% bubbles (Composition I of Example 5)
# Protocol: Rabbit aortic endothelial cells (RAEC) from Biowhittaker (Cat No. AC-7018, lot 9CC086 from a custom isolation) were obtained frozen on dry ice and stored in liquid nitrogen until thawing. RAEC were cultured and used in bubble binding assays exactly as HAEC (described above), except that EGM2-MV medium (Biowhittaker Cat No. CC-3202) was substituted for EGM-MV.
smiles,measurement,setting,value
"CC(O)C(N)C(=O)NC(CCCCN)C(=O)N1CCCC1C(=O)N1CCCC1C(=O)NC(CCCNC(=N)N)C(=O)O [TKPPR, L-Arginine, L-threonyl-L-lysyl-L-prolyl-L-prolyl] (H-TKPPR-OH; configuration not given here)",Average (n = 11) % Inhibition of TKPPR-bead binding,[1]; free TKPPR 10 μM,30.8%
same,Average (n = 11) % Inhibition of TKPPR-bead binding,[1]; free TKPPR 25 μM,50.7%
same,Average (n = 11) % Inhibition of TKPPR-bead binding,[1]; free TKPPR 50 μM,50.5%
same,Average (n = 11) % Inhibition of TKPPR-bead binding,[1]; free TKPPR 100 μM,62.0%
same,Average (n = 11) % Inhibition of TKPPR-bead binding,[1]; free TKPPR 200 μM,72.2%
same,Average (n = 11) % Inhibition of TKPPR-bead binding,[1]; free TKPPR 500 μM,70.6%
same,IC50,Neuropilin-1/Fc,80 µM
same,Integrated density of bound beads,"[2]; Experiment 1, 1.95×10^7 beads/mL, 30 min, HAEC monolayer",229.97 arbitrary units
same,Number of bound beads,"[2]; Experiment 2, 4.9×10^6 beads/mL, 15 min, manual counting, TKPPR average of three fields, others one field","74, 103, 72 (ave. 83)"
same,RAEC bubbles bound,[3],21
